Here are results for seven molecules from ChEMBL document CHEMBL1139487, “Discovery of corticotropin releasing factor 2 receptor selective sauvagine analogues for treatment of skeletal muscle atrophy” (J Med Chem, 2005).

One may read the Emax as the size of the effect at its maximum, as opposed to the concentration needed. The EC50 is the midpoint of the concentration-response curve. The low end stands for a more potent agent, the high end for a less potent agent.

Test [1] concerns the target T1, Corticotropin-releasing factor receptor 1 (Mus musculus) (UniProt P35347).
T1 sequence (whole entry): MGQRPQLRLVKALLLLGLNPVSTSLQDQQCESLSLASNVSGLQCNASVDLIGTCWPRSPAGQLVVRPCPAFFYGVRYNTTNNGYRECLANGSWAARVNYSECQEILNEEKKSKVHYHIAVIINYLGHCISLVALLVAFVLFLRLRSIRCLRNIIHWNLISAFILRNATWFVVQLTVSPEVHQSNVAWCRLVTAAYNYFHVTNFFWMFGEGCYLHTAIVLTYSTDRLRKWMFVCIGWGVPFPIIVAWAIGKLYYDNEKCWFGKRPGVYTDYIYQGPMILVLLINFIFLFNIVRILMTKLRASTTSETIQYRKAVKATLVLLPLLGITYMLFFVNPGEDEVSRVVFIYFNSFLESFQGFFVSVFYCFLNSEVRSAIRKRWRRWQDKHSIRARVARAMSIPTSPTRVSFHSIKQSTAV
Briefly: In vitro agonistic activity against mouse corticotropin releasing factor 1 receptor. It is filed as functional.

In test [2] the target is Corticotropin-releasing factor receptor 2 (Mus musculus) (UniProt Q60748). In words: In vitro agonistic activity against mouse corticotropin releasing factor 2 receptor. Format: functional.
Corticotropin-releasing factor receptor 2 (Mus musculus), sequence (Q60748 whole entry): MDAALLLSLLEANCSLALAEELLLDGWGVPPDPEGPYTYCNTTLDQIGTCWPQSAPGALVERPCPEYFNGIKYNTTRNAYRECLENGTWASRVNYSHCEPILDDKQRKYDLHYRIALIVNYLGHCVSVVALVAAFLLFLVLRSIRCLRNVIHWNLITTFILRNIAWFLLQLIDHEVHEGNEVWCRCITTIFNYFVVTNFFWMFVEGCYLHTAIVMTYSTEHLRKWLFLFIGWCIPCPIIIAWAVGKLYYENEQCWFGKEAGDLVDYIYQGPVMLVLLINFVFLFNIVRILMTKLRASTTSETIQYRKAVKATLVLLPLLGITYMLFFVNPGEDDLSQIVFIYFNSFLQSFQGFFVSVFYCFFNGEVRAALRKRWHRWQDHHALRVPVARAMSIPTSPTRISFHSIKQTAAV
The species entered for test [3] is Mus musculus. In words: Selectivity ratio of EC50s for mouse corticotropin releasing factor receptors 1 and 2.
Test [4] addresses T2, Corticotropin-releasing factor receptor 1 (Mus musculus, UniProt P35347).
T2 sequence (P35347 whole entry): T1 sequence (whole entry)
In words: In vitro effective concentration for mouse corticotropin releasing factor 1 receptor.

The target in test [5] is Corticotropin-releasing factor receptor 2 (Mus musculus, UniProt Q60748). Briefly: In vitro effective concentration for mouse corticotropin releasing factor 2 receptor.
Corticotropin-releasing factor receptor 2, sequence (Q60748 whole entry): as above

Square brackets hold non-standard residues; d marks the D form. Peptide text beside a SMILES is read from it. 1Nal = N[C@@H](Cc1cccc2ccccc12)C(=O)O; pGlu = O=C1CC[C@@H](C(=O)O)N1

As to `CC[C@H](C)[C@H](NC(=O)[C@@H](NC(=O)[C@H](CC(=O)O)NC(=O)[C@H](CC(C)C)NC(=O)[C@H](CC(C)C)NC(=O)[C@H](CC(C)C)NC(=O)[C@H](CCCN=C(N)N)NC(=O)[C@H](CC(N)=O)NC(=O)[C@H](CC(N)=O)NC(=O)[C@H](C)NC(=O)[C@H](C)NC(=O)[C@H](CCC(N)=O)NC(=O)[C@H](CCC(N)=O)NC(=O)[C@H](CCCCN)NC(=O)[C@H](CCC(=O)O)NC(=O)[C@H](CCCCN)NC(=O)[C@H](CCC(=O)O)NC(=O)[C@H](CCC(N)=O)NC(=O)[C@H](CCCCN)NC(=O)[C@H](CCC(=O)O)NC(=O)[C@@H](NC(=O)[C@H](CCC(=O)O)NC(=O)[C@@H](NC(=O)[C@H](CCSC)NC(=O)[C@H](CCCCN)NC(=O)[C@H](CCCN=C(N)N)NC(=O)[C@H](CC(C)C)NC(=O)[C@H](CC(C)C)NC(=O)[C@H](Cc1ccc(O)cc1)NC(=O)[C@H](CCC(N)=O)NC(=O)[C@@H]1CCCN1C(=O)[C@H](CC(C)C)NC(=O)[C@H](CC(=O)O)NC(=O)[C@@H](NC(=O)[C@H](CO)NC(=O)[C@@H](NC(=O)[C@@H]1CCCN1C(=O)[C@@H]1CCCN1C(=O)CNC(=O)[C@@H]1CCC(=O)N1)[C@@H](C)CC)[C@@H](C)CC)[C@@H](C)CC)[C@@H](C)CC)[C@@H](C)O)C(=O)O`, the results for the maximal effect (Emax) in test [1] and in test [2] were 100% and 96%, respectively. Also, the Selectivity in test [3] was determined as 30.
Regarding `CC[C@H](C)[C@H](NC(=O)[C@@H](NC(=O)[C@H](CC(=O)O)NC(=O)[C@H](CC(C)C)NC(=O)[C@H](CC(C)C)NC(=O)[C@H](CC(C)C)NC(=O)[C@H](CCCN=C(N)N)NC(=O)[C@H](CC(N)=O)NC(=O)[C@H](CC(N)=O)NC(=O)[C@H](C)NC(=O)[C@H](C)NC(=O)[C@H](CCC(N)=O)NC(=O)[C@H](CCC(N)=O)NC(=O)[C@H](CCCCN)NC(=O)[C@H](CCC(=O)O)NC(=O)[C@H](CCCCN)NC(=O)[C@H](CCC(=O)O)NC(=O)[C@H](CCC(N)=O)NC(=O)[C@H](CCCCN)NC(=O)[C@H](CCC(=O)O)NC(=O)[C@@H](NC(=O)[C@H](CCC(=O)O)NC(=O)[C@@H](NC(=O)[C@H](CCSC)NC(=O)[C@H](CCCCN)NC(=O)[C@H](CCCN=C(N)N)NC(=O)[C@H](CC(C)C)NC(=O)[C@H](CC(C)C)NC(=O)CNC(=O)[C@H](CC(C)C)NC(=O)[C@@H]1CCCN1C(=O)[C@H](CC(C)C)NC(=O)[C@H](CC(=O)O)NC(=O)[C@@H](NC(=O)[C@H](CO)NC(=O)[C@@H](NC(=O)[C@@H]1CCCN1C(=O)[C@@H]1CCCN1C(=O)CNC(=O)[C@@H]1CCC(=O)N1)[C@@H](C)CC)[C@@H](C)CC)[C@@H](C)CC)[C@@H](C)CC)[C@@H](C)O)C(=O)O` ([pGlu]GPPISIDLPLGLLRKMIEIEKQEKEKQQAANNRLLLDTI-OH), the results for the Emax in test [1] and in test [2] were 99% and 82%, respectively. Also, in test [3], the Selectivity turned out to be 14.
As for `CC[C@H](C)[C@H](NC(=O)[C@@H](NC(=O)[C@H](CC(=O)O)NC(=O)[C@H](CC(C)C)NC(=O)[C@H](CC(C)C)NC(=O)[C@H](CC(C)C)NC(=O)[C@H](CCCN=C(N)N)NC(=O)[C@H](CC(N)=O)NC(=O)[C@H](CC(N)=O)NC(=O)[C@H](C)NC(=O)[C@H](C)NC(=O)[C@H](CCC(N)=O)NC(=O)[C@H](CCC(N)=O)NC(=O)[C@H](CCCCN)NC(=O)[C@H](CCC(=O)O)NC(=O)[C@H](CCCCN)NC(=O)[C@H](CCC(=O)O)NC(=O)[C@H](CCC(N)=O)NC(=O)[C@H](CCCCN)NC(=O)[C@H](CCC(=O)O)NC(=O)[C@@H](NC(=O)[C@H](CCC(=O)O)NC(=O)[C@@H](NC(=O)[C@H](CCSC)NC(=O)[C@H](CCCCN)NC(=O)[C@H](CCCN=C(N)N)NC(=O)[C@H](CC(C)C)NC(=O)[C@H](CC(C)C)NC(=O)[C@H](CC(C)C)NC(=O)[C@H](CC(C)C)NC(=O)[C@@H]1CCCN1C(=O)[C@H](CC(C)C)NC(=O)[C@H](CC(=O)O)NC(=O)[C@@H](NC(=O)[C@H](CO)NC(=O)[C@@H](NC(=O)[C@@H]1CCCN1C(=O)[C@@H]1CCCN1C(=O)CNC(=O)[C@@H]1CCC(=O)N1)[C@@H](C)CC)[C@@H](C)CC)[C@@H](C)CC)[C@@H](C)CC)[C@@H](C)O)C(=O)O`, the Emax amounted to 96% in test [1] and 100% in test [2]. Moreover, the Selectivity in test [3] is 22.
Take `CC[C@H](C)[C@H](NC(=O)[C@@H](NC(=O)[C@H](CC(=O)O)NC(=O)[C@H](CC(C)C)NC(=O)[C@H](CC(C)C)NC(=O)[C@H](CC(C)C)NC(=O)[C@H](CCCN=C(N)N)NC(=O)[C@H](CC(N)=O)NC(=O)[C@H](CC(N)=O)NC(=O)[C@H](C)NC(=O)[C@H](C)NC(=O)[C@H](CCC(N)=O)NC(=O)[C@H](CCC(N)=O)NC(=O)[C@H](CCCCN)NC(=O)[C@H](CCC(=O)O)NC(=O)[C@H](CCCCN)NC(=O)[C@H](CCC(=O)O)NC(=O)[C@H](CCC(N)=O)NC(=O)[C@H](CCCCN)NC(=O)[C@H](CCC(=O)O)NC(=O)[C@@H](NC(=O)[C@H](CCC(=O)O)NC(=O)[C@@H](NC(=O)[C@H](CCSC)NC(=O)[C@H](CCCCN)NC(=O)[C@H](CCCN=C(N)N)NC(=O)[C@H](CC(C)C)NC(=O)[C@H](CC(C)C)NC(=O)[C@@H](NC(=O)[C@H](Cc1ccccc1)NC(=O)[C@@H]1CCCN1C(=O)[C@H](CC(C)C)NC(=O)[C@H](CC(=O)O)NC(=O)[C@@H](NC(=O)[C@H](CO)NC(=O)[C@@H](NC(=O)[C@@H]1CCCN1C(=O)[C@@H]1CCCN1C(=O)CNC(=O)[C@@H]1CCC(=O)N1)[C@@H](C)CC)[C@@H](C)CC)C(C)C)[C@@H](C)CC)[C@@H](C)CC)[C@@H](C)O)C(=O)O`: the Emax in test [1] amounted to 81%; in test [2] it was 91%. The Selectivity in test [3] was found to be 14.
Consider `CC[C@H](C)[C@H](NC(=O)[C@@H](NC(=O)[C@H](CC(=O)O)NC(=O)[C@H](CC(C)C)NC(=O)[C@H](CC(C)C)NC(=O)[C@H](CC(C)C)NC(=O)[C@H](CCCN=C(N)N)NC(=O)[C@H](CC(N)=O)NC(=O)[C@H](CC(N)=O)NC(=O)[C@H](C)NC(=O)[C@H](C)NC(=O)[C@H](CCC(N)=O)NC(=O)[C@H](CCC(N)=O)NC(=O)[C@H](CCCCN)NC(=O)[C@H](CCC(=O)O)NC(=O)[C@H](CCCCN)NC(=O)[C@H](CCC(=O)O)NC(=O)[C@H](CCC(N)=O)NC(=O)[C@H](CCCCN)NC(=O)[C@H](CCC(=O)O)NC(=O)[C@@H](NC(=O)[C@H](CCC(=O)O)NC(=O)[C@@H](NC(=O)[C@H](CCSC)NC(=O)[C@H](CCCCN)NC(=O)[C@H](CCCN=C(N)N)NC(=O)[C@H](CC(C)C)NC(=O)[C@H](CC(C)C)NC(=O)[C@H](Cc1cccc2ccccc12)NC(=O)[C@H](CCC(N)=O)NC(=O)[C@@H]1CCCN1C(=O)[C@H](CC(C)C)NC(=O)[C@H](CC(=O)O)NC(=O)[C@@H](NC(=O)[C@H](CO)NC(=O)[C@@H](NC(=O)[C@@H]1CCCN1C(=O)[C@@H]1CCCN1C(=O)CNC(=O)[C@@H]1CCC(=O)N1)[C@@H](C)CC)[C@@H](C)CC)[C@@H](C)CC)[C@@H](C)CC)[C@@H](C)O)C(=O)O` ([pGlu]GPPISIDLPQ[1Nal]LLRKMIEIEKQEKEKQQAANNRLLLDTI-OH), for which the Emax in test [1] and in test [2] was 100% each time. Besides, the Selectivity in test [3] is 26.
Regarding `CC[C@H](C)[C@H](NC(=O)[C@@H](NC(=O)[C@H](CC(=O)O)NC(=O)[C@H](CC(C)C)NC(=O)[C@H](CC(C)C)NC(=O)[C@H](CC(C)C)NC(=O)[C@H](CCCN=C(N)N)NC(=O)[C@H](CC(N)=O)NC(=O)[C@H](CC(N)=O)NC(=O)[C@H](C)NC(=O)[C@H](C)NC(=O)[C@H](CCC(N)=O)NC(=O)[C@H](CCC(N)=O)NC(=O)[C@H](CCCCN)NC(=O)[C@H](CCC(=O)O)NC(=O)[C@H](CCCCN)NC(=O)[C@H](CCC(=O)O)NC(=O)[C@H](CCC(N)=O)NC(=O)[C@H](CCCCN)NC(=O)[C@H](CCC(=O)O)NC(=O)[C@@H](NC(=O)[C@H](CCC(=O)O)NC(=O)[C@@H](NC(=O)[C@H](CCSC)NC(=O)[C@H](CCCCN)NC(=O)[C@H](CCCN=C(N)N)NC(=O)[C@H](CC(C)C)NC(=O)[C@H](CC(C)C)NC(=O)[C@H](CCC(=O)O)NC(=O)[C@H](CC(C)C)NC(=O)[C@@H]1CCCN1C(=O)[C@H](CC(C)C)NC(=O)[C@H](CC(=O)O)NC(=O)[C@@H](NC(=O)[C@H](CO)NC(=O)[C@@H](NC(=O)[C@@H]1CCCN1C(=O)[C@@H]1CCCN1C(=O)CNC(=O)[C@@H]1CCC(=O)N1)[C@@H](C)CC)[C@@H](C)CC)[C@@H](C)CC)[C@@H](C)CC)[C@@H](C)O)C(=O)O`, the Emax in test [1] worked out at 99%; in test [2], 95%. For the same molecule, the Selectivity in test [3] is 9.
For the molecule `CC[C@H](C)[C@H](NC(=O)[C@@H](NC(=O)[C@H](CC(=O)O)NC(=O)[C@H](CC(C)C)NC(=O)[C@H](CC(C)C)NC(=O)[C@H](CC(C)C)NC(=O)[C@H](CCCNC(=N)N)NC(=O)[C@H](CC(N)=O)NC(=O)[C@H](CC(N)=O)NC(=O)[C@H](C)NC(=O)[C@H](C)NC(=O)[C@H](CCC(N)=O)NC(=O)[C@H](CCC(N)=O)NC(=O)[C@H](CCCCN)NC(=O)[C@H](CCC(=O)O)NC(=O)[C@H](CCCCN)NC(=O)[C@H](CCC(=O)O)NC(=O)[C@H](CCC(N)=O)NC(=O)[C@H](CCCCN)NC(=O)[C@H](CCC(=O)O)NC(=O)[C@@H](NC(=O)[C@H](CCC(=O)O)NC(=O)[C@@H](NC(=O)[C@H](CCSC)NC(=O)[C@H](CCCCN)NC(=O)[C@H](CCCNC(=N)N)NC(=O)[C@H](CC(C)C)NC(=O)[C@H](CC(C)C)NC(=O)[C@H](Cc1ccc(O)cc1)NC(=O)[C@@H](NC(=O)[C@@H]1CCCN1C(=O)[C@H](CC(C)C)NC(=O)[C@H](CC(=O)O)NC(=O)[C@@H](NC(=O)[C@H](CO)NC(=O)[C@@H](NC(=O)[C@@H]1CCCN1C(=O)[C@@H]1CCCN1C(=O)CNC(=O)[C@@H]1CCC(=O)N1)[C@@H](C)CC)[C@@H](C)CC)[C@@H](C)CC)[C@@H](C)CC)[C@@H](C)CC)[C@@H](C)O)C(=O)O`, the results for the concentration for a half-maximal effect (EC50) in test [4] and in test [5] were above 1000 nM and 22.3 nM, respectively.
